# Source: patent US8226944B2, “Composition for treating virus infection disease comprising Jab1” (priority 2004, dated 2012)
# Square brackets hold non-standard residues; d marks the D form. Peptide text beside a SMILES is read from it. Nle = CCCC[C@H](N)C(=O)O
# Legend:
# WNV-Cp [1] = test: Western blotting of WNV-Cp protein levels in transfected 293T cells; type: cell-based
# Method: 293T cells were plated onto 60-mm plates at a density of 3×10^5 cells, cultured, and transfected with pcDAN3-HA/WNV-Cp alone, and pcDAN3-HA/WNV-Cp and pCMV-tag2B-Jab1 together using an Effectene transfection reagent (Qiagen). In the case of the co-transfection, to equalize the levels of expressed DNA, 12 hrs after transfection, cells were divided into two plates by pipetting. 20 hrs after transfection, the cells were treated for 4 hrs with 20 μM/ml of the proteasome inhibitor LLnL (N-acetyl-L-luecinyl-norleucinal, Sigma). Then, the cells were washed with 1×PBS and collected. Samples of 50 μg protein were loaded onto a SDS-PAGE gel and analyzed by Western blotting using an anti-HA antibody (Santa Cruz) for the detection of WNV-Cp expression and an anti-Flag M2 antibody (Sigma) for the detection of Jab1 expression. Actin was used as a loading control.
# [2] = tested on: SH-SY5Y cells expressing WNV-Cp; test: Annexin V-PE staining / FACS apoptosis rate in cells transfected with WNV-Cp gene; type: cell-based, human; details: 200 nM inhibitor added after 6 hrs, measured after 24 hrs, untreated WNV-Cp cells 69.6%
# Text: Human neuroblastoma SH-SY5Y cells were transfected with a WNV-Cp gene. To determine an apoptosis rate in cells expressing the capsid protein of WNV, the cells were stained with annexin V-PE and subjected to FACS analysis (BioRAD, Win BRYTE). As a result, the cells were fractionated into four fractions: A, B, C and D. The A fraction indicates a cell population that was not injected with the WNV-Cp gene and stained with annexin V-PE.
# Separately, SH-SY5Y cells were transfected with a WNV-Cp gene. After 6 hrs, the cells were treated with 200 nM of a PI3K inhibitor, wortmanin (Sigma), and 5 μM and 50 μM of an Akt inhibitor, calbiochem (CN Biosciences). After 24 hrs, the cells were stained with annexin V-PE that is capable of detecting a step of apoptosis and subjected to FACS analysis (BioRAD, WinBryte) for measuring an apoptosis rate. […] The transfected cells were analyzed on a FL3 channel (green fluorescence) and annexin V-PE binding was analyzed on a FL2 channel. An apoptosis rate in capsid-expressing cells was calculated according to Reaction 1, below. Cells transfected with a pEGFP-N1 plasmid were used as a negative control, and cells transfected with a C2-Cp plasmid and not treated with the inhibitor were used as a positive control. [Annexin V-PE-positive cells/(all cells expressing C2−Cp)]×100 [Reaction 1]
# caspase-3 and caspase-9 = test: Caspase activity assay (colorimetric) in transfected 293T cells; type: cell-based, human; details: 293T cells co-expressing WNV-Cp and Jab1 versus WNV-Cp alone, 24 hrs after transfection
# Method: 293T cells were plated onto 60-mm plates at a density of 3×10^5 cells, cultured, and transfected with pcDNA3-HA, pcDNA3-HA/Cp, pCMV-tag2B-Jab1, both pcDNA3-HA/Cp and pCMV-tag2B-Jab1, and pcDNA3-Bax, respectively. After 24 hrs, the cells were washed with 1×PBS twice, transferred to 1.5-ml tubes, and lysed with 20 μl of buffer C (25% glycerol, 0.42 M NaCl, 1.5 M MgCl2, 0.2 mM EDTA, 20 mM HEPES, 1 mM DTT, 0.5 mM PMSF, pH7.9). After being incubated for 10 min on ice, the lysed cells were centrifuged. The total protein concentration in each supernatant was measured, and samples of zero to 300 μg of proteins were placed into a 96-well plate. To the 96-well plate, 50 μl of 2× reaction buffer and 5 μl of 4 mM DNA-conjugated substrate, provided in a caspase colorimetric substrate set II plus kit (Biovision), were added. After a 1-hr incubation at 37° C., the activity of caspase-3 and caspase-9 was measured at 410 nm using a microtiter plate reader. The results are given in the A panel of FIG. 8. In cells expressing WNV-Cp, the activity of capase-3 and caspase-9 was similar to that in cells expressing Bax, a member of the pro-apoptotic Bcl-2 family. […] The expression of the proteins used in this caspase activity assay was detected by Western blotting, and the results are given in the B panel of FIG. 8.
# p53 = test: Western blotting of endogenous p53 expression in transfected U2OS cells; type: cell-based, human; details: U2OS cells transfected with 1, 3 and 5 μg Flag construct, 48 hrs
# Method: U2OS cells were transfected with Flag/mdm2 (control) and Flag/Jab1 with various concentrations of 1, 3 and 5 μg using a Lipofectamin/plus reagent (Invitrogen). After 48 hrs, cell lysates were collected, and total protein concentrations were measured by a BSA (PIERCE) method. Samples of 100 μg/ml protein were separated on a 10% SDS-PAGE gel and transferred to a nitrocellulose membrane. The blot was blocked with 5% skim milk for 30 min, and treated with a rabbit anti-HA antibody (Santa Cruz) and a mouse anti-Flag antibody (Sigma) to examine expression levels of p53 according to increased expression of mdm2 and Jab1.
# WNV-Cp [3] = molecular target: T1, WNV-Cp (West Nile virus, UniProt Q9Q6P4); test: Immunoprecipitation of Jab1 with WNV-Cp in cotransfected 293T cells; type: binding; details: 293T cells cotransfected with Flag-Jab1 and HA-WNV-Cp, IP with anti-HA antibody
# T1 construct: capsid (Cp) protein of West Nile virus (WNV); expressed in transfected cells; host or cells: 293T
# T1 sequence (Q9Q6P4 2-105 limits assumed): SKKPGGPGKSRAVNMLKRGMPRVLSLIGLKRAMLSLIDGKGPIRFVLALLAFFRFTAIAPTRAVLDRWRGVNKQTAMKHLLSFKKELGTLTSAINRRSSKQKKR
# Method: Separately, immunoprecipitation (IP) was performed to confirm the interaction between WNV-Cp and Jab1. 293T cells were cotransfected with Flag-Jab1 and HA-WNV-Cp plasmids, and the whole cell lysates were immunoprecipitated with an anti-HA mouse antibody. As a control, IP was carried out with an anti-Myc antibody. Immunoprecipited proteins were run on a 12% SDS-PAGE gel, transferred to a nitrocellulose membrane, and detected with an anti-Flag mouse antibody to visualize immunoprecipitated Jab1 along with WNV-Cp (FIG. 7).
# WNV-Cp [4] = test: Immunofluorescence (confocal) localisation of WNV-Cp in cotransfected 293T, U2OS and HeLa cells; type: cell-based, West Nile virus; details: U2OS and HeLa cells cotransfected with WNV-Cp and Jab1, 24 hrs
# Text: To evaluate the effect of Jab1, identified to interact with WNV-Cp, on the intracellular location of WNV-cp, 293T, U2OS and HeLa cells were cotransfected with the WNV-Cp protein and Jab1. 293T, U2OS and HeLa cells were cotransfected with HA-tagged pcDNA-HA/WNV-Cp and Flag-tagged pCMV Tag2B-Jab1. After 24 hrs, the cells were stained using an anti-HA antibody (green) and an anti-Flag antibody (red) and observed under a confocal microscope.
# Chain of p53 (P04637 whole entry): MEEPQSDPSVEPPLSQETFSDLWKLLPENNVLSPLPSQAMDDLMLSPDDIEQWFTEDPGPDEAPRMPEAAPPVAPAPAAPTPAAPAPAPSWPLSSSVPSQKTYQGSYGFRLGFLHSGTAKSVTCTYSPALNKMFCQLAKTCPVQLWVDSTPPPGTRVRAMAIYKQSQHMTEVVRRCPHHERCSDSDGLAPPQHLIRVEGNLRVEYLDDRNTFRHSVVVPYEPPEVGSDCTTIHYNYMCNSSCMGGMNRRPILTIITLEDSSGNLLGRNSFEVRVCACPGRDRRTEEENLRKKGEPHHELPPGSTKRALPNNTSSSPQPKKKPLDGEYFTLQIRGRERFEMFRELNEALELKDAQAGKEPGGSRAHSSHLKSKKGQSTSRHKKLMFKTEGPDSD
compound,measurement,setting,value
"CCCC[C@@H](C=O)NC(=O)[C@H](CC(C)C)NC(=O)[C@H](CC(C)C)NC(C)=O [LLnL, N-acetyl-L-luecinyl-norleucinal, reference compound] (Ac-Leu-Leu-[Nle]-aldehyde)",protein levels of WNV-Cp,"WNV-Cp [1]; 293T cells cotransfected with WNV-Cp and Jab1, treated for 4 hrs with 20 μM/ml LLnL",increased
COC[C@H]1OC(=O)c2coc3c2[C@@]1(C)C1=C(C3=O)[C@@H]2CCC(=O)[C@@]2(C)C[C@H]1OC(C)=O [wortmanin],apoptosis rate,[2],22.8%
"Jab1: Jun-activation binding protein 1, expressed in cells from plasmid pCMV-tag2B-Jab1 (Flag-tagged); amino acid sequence SEQ ID No. 2",caspase activity (caspase-3 and caspase-9),caspase-3 and caspase-9,remarkably reduced
same,expression of p53,p53,remarkably decreased
same,protein levels of WNV-Cp,"WNV-Cp [1]; 293T cells, co-expression with Jab1 compared to single expression of WNV-Cp",large decrease
same,interaction with WNV-Cp (co-immunoprecipitation),WNV-Cp [3],co-immunoprecipitated with WNV-Cp
same,intracellular location of WNV-Cp,WNV-Cp [4],appeared in the cytoplasm
